Where a SMILES comes first, the peptide text is derived from it. Bridges are numbered along the chain shown (N, C = ends). [ ]: non-standard residue; d: D form. The star is where a group is joined. hPhe(3-Cl-4-CF3) = N[C@@H](CCc1ccc(C(F)(F)F)c(Cl)c1)C(=O)O; NPrPhe(4-CF3) = CCCN[C@@H](Cc1ccc(C(F)(F)F)cc1)C(=O)O; 3Oxa8azabicyclo(3.2.1)octane = C1CC2COCC1N2*; NMeGly(cPent) = CN[C@H](C(=O)O)C1CCCC1; cisHyp = O=C(O)[C@@H]1C[C@H](O)CN1; NMeD = CN[C@@H](CC(=O)O)C(=O)O; NMeL = CN[C@@H](CC(C)C)C(=O)O; Oxazolidin(3-yl) = C1CN(*)CO1; Morpholide = C1CN(*)CCO1; Ac5c = NC1(C(=O)O)CCCC1; Aze = O=C(O)[C@@H]1CCN1; Abu = CC[C@H](N)C(=O)O; Ac4c = NC1(C(=O)O)CCC1; NEtG = CCNCC(=O)O; Sar = CNCC(=O)O

The values below come from patent publication US20240158446A1, “CYCLIC COMPOUND HAVING SELECTIVE INHIBITORY ACTION ON KRAS OVER HRAS AND NRAS” (CHUGAI SEIYAKU KABUSHIKI KAISHA, priority 2021, published 2024).

In test [1] the test system is human lung cancer strain NCI-H441.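 Note: cell proliferation inhibition after four days measured by CellTiter-Glo.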
Test [2] addresses GDP-bound NRAS wild-type protein (Homo sapiens, UniProt P01111). As to the kind of experiment: Binding to NRAS by surface plasmon resonance (SPR), Single Cycle Kinetics. As to conditions: SPR, GDP-bound NRAS wild-type protein vs GDP-bound KRAS wild-type protein.
For test [3], the target named is GDP-bound HRAS wild-type protein (Homo sapiens, UniProt P01112). As to the kind of experiment: Binding to HRAS by surface plasmon resonance (SPR), Single Cycle Kinetics. The conditions noted are these: SPR, GDP-bound HRAS wild-type protein vs GDP-bound KRAS wild-type protein.
The target of test [4] is GDP-bound KRAS wild-type protein (Homo sapiens, UniProt P01116). As to the kind of experiment: Binding to KRAS by surface plasmon resonance (SPR), Single Cycle Kinetics. The conditions noted are these: SPR Single Cycle Kinetics, GDP-bound KRAS wild-type protein, 1:1 binding model; read-out: KRAS KD.
Sequence of GDP-bound KRAS wild-type protein (P01116 whole entry): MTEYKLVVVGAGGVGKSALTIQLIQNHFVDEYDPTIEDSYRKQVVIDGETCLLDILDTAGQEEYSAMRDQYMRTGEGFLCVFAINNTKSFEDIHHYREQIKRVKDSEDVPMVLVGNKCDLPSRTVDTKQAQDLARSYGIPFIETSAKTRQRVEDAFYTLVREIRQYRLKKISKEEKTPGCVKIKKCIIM

Sequence of GDP-bound HRAS wild-type protein (P01112 whole entry): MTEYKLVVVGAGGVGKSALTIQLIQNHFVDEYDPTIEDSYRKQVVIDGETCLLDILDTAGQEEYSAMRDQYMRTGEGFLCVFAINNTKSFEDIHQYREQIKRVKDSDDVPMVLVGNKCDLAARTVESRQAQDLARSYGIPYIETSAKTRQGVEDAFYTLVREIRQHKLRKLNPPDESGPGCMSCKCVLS
Sequence of GDP-bound NRAS wild-type protein (P01111 whole entry): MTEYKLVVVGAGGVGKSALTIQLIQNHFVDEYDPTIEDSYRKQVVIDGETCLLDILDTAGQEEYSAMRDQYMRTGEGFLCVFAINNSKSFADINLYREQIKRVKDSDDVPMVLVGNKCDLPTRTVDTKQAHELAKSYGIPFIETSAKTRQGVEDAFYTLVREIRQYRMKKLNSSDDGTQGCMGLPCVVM

Consider `CCCN1C(=O)CN(C)C(=O)CN(C)C(=O)[C@H]([C@@H](C)CC)NC(=O)[C@H](CC(C)C)N(C)C(=O)C[C@@H](C(=O)N2C3CCC2COC3)N(C)C(=O)[C@H](C2CCCC2)N(C)C(=O)C2(CCCC2)NC(=O)[C@@H]2CCCN2C(=O)[C@H](CCc2ccc(C(F)(F)F)c(Cl)c2)NC(=O)CN(C)C(=O)[C@@H]1Cc1ccc(C(F)(F)F)cc1` [PP0173] ([NMeL]I[Sar][Sar][NPrPhe(4-CF3)][Sar][hPhe(3-Cl-4-CF3)]P[Ac5c][NMeGly(cPent)][NMeD]-{3Oxa8azabicyclo(3.2.1)octane}; lactam N-11), for which it took 11.6 nM to reach half-maximal inhibition in test [1] (IC50). For the same molecule, the “NRAS/KRAS (ratio of KD value for NRAS to KD value for KRAS)” value in test [2] was “B (a compound having 3 or more and less than 10 is denoted as B)”. Besides, the “HRAS/KRAS (ratio of KD value for HRAS to KD value for KRAS)” value in test [3] is “C (A compound having a KD ratio of 0.1 or more and less than 3 is denoted as C)”. Moreover, the Kd in test [4] came to 0.67 nM.
For the molecule `CCCN1C(=O)CN(C)C(=O)CN(C)C(=O)[C@H]([C@@H](C)CC)NC(=O)[C@H](CC(C)C)N(C)C(=O)C[C@@H](C(=O)N2CCOC2)N(C)C(=O)[C@H](C2CCCC2)N(C)C(=O)C2(CCCC2)NC(=O)[C@@H]2CCCN2C(=O)[C@H](CCc2ccc(C(F)(F)F)c(Cl)c2)NC(=O)CN(C)C(=O)[C@@H]1Cc1ccc(C(F)(F)F)cc1` [PP0174] ([NMeL]I[Sar][Sar][NPrPhe(4-CF3)][Sar][hPhe(3-Cl-4-CF3)]P[Ac5c][NMeGly(cPent)][NMeD]-{Oxazolidin(3-yl)}; lactam N-11), the IC50 in test [1] is 5.2 nM. In test [2], the “NRAS/KRAS (ratio of KD value for NRAS to KD value for KRAS)” value was “B (a compound having 3 or more and less than 10 is denoted as B)”. Also, the “HRAS/KRAS (ratio of KD value for HRAS to KD value for KRAS)” value in test [3] is “B (a compound having 3 or more and less than 10 is denoted as B)”. Further, in test [4], the equilibrium dissociation constant (Kd) stood at 0.15 nM.
For the molecule `CCCN1C(=O)CN(C)C(=O)CN(C)C(=O)[C@H]([C@@H](C)CC)NC(=O)[C@H](CC(C)C)N(C)C(=O)C[C@@H](C(=O)N2CCOCC2)N(C)C(=O)[C@H](C2CCCC2)N(C)C(=O)C2(CCCC2)NC(=O)[C@@H]2C[C@H](O)CN2C(=O)[C@H](CCc2ccc(C(F)(F)F)c(Cl)c2)NC(=O)CN(C)C(=O)[C@@H]1Cc1ccc(C(F)(F)F)cc1` [PP0240] ([NMeL]I[Sar][Sar][NPrPhe(4-CF3)][Sar][hPhe(3-Cl-4-CF3)][cisHyp][Ac5c][NMeGly(cPent)][NMeD]-Morpholide; lactam N-11), 7.9 nM corresponded to half-maximal inhibition in test [1] (IC50). Besides, in test [2], the “NRAS/KRAS (ratio of KD value for NRAS to KD value for KRAS)” value is “B (a compound having 3 or more and less than 10 is denoted as B)”. Further, the “HRAS/KRAS (ratio of KD value for HRAS to KD value for KRAS)” value in test [3] was “C (A compound having a KD ratio of 0.1 or more and less than 3 is denoted as C)”. Also, in test [4], the Kd was 0.035 nM.
As to `CCCN1C(=O)CN(C)C(=O)CN(C)C(=O)[C@H]([C@@H](C)CC)NC(=O)[C@H](CC(C)C)N(C)C(=O)C[C@@H](C(=O)N2CCOCC2)N(C)C(=O)[C@H](C2CCCC2)N(C)C(=O)C2(CCCC2)NC(=O)CN(C)C(=O)[C@H](CCc2ccc(C(F)(F)F)c(Cl)c2)NC(=O)CN(C)C(=O)[C@@H]1Cc1ccc(C(F)(F)F)cc1` [PP0266] ([NMeL]I[Sar][Sar][NPrPhe(4-CF3)][Sar][hPhe(3-Cl-4-CF3)][Sar][Ac5c][NMeGly(cPent)][NMeD]-Morpholide; lactam N-11), half-maximal inhibition in test [1] (IC50) was put at 15.2 nM. Moreover, the “NRAS/KRAS (ratio of KD value for NRAS to KD value for KRAS)” value in test [2] was “B (a compound having 3 or more and less than 10 is denoted as B)”. Besides, the “HRAS/KRAS (ratio of KD value for HRAS to KD value for KRAS)” value in test [3] is “C (A compound having a KD ratio of 0.1 or more and less than 3 is denoted as C)”. Also, the Kd in test [4] came out at 0.2 nM.
With `CCCN1C(=O)CN(C)C(=O)CN(CC)C(=O)[C@H](CC)NC(=O)[C@H](CC(C)C)N(C)C(=O)C[C@@H](C(=O)N2CCOCC2)N(C)C(=O)[C@H](C2CCCC2)N(C)C(=O)C2(CCCC2)NC(=O)[C@@H]2CCCN2C(=O)[C@H](CCc2ccc(C(F)(F)F)c(Cl)c2)NC(=O)CN(C)C(=O)[C@@H]1Cc1ccc(C(F)(F)F)cc1` [PP0290] ([NMeL][Abu][NEtG][Sar][NPrPhe(4-CF3)][Sar][hPhe(3-Cl-4-CF3)]P[Ac5c][NMeGly(cPent)][NMeD]-Morpholide; lactam N-11), in test [1], the IC50 worked out at 149 nM. Further, the “NRAS/KRAS (ratio of KD value for NRAS to KD value for KRAS)” value in test [2] was “B (a compound having 3 or more and less than 10 is denoted as B)”. In addition, in test [3], the “HRAS/KRAS (ratio of KD value for HRAS to KD value for KRAS)” value is “C (A compound having a KD ratio of 0.1 or more and less than 3 is denoted as C)”. The Kd in test [4] was 4.8 nM.
In test [1], `CCCN1C(=O)CN(C)C(=O)CN(CC)C(=O)[C@H]([C@@H](C)CC)NC(=O)[C@H](CC(C)C)N(C)C(=O)C[C@@H](C(=O)N2CCOCC2)N(C)C(=O)[C@H](C2CCCC2)N(C)C(=O)C2(CCC2)NC(=O)[C@@H]2CCCN2C(=O)[C@H](CCc2ccc(C(F)(F)F)c(Cl)c2)NC(=O)CN(C)C(=O)[C@@H]1Cc1ccc(C(F)(F)F)cc1` [PP0398] ([NMeL]I[NEtG][Sar][NPrPhe(4-CF3)][Sar][hPhe(3-Cl-4-CF3)]P[Ac4c][NMeGly(cPent)][NMeD]-Morpholide; lactam N-11) displayed an IC50 of 3.6 nM. Further, the “NRAS/KRAS (ratio of KD value for NRAS to KD value for KRAS)” value in test [2] is “B (a compound having 3 or more and less than 10 is denoted as B)”. Besides, in test [3], the “HRAS/KRAS (ratio of KD value for HRAS to KD value for KRAS)” value is “C (A compound having a KD ratio of 0.1 or more and less than 3 is denoted as C)”. For the same molecule, the dissociation constant (Kd) in test [4] stood at 0.48 nM.
Take `CCCN1C(=O)[C@@H]2CCN2C(=O)CN(C)C(=O)[C@H]([C@@H](C)CC)NC(=O)[C@H](CC(C)C)N(C)C(=O)C[C@@H](C(=O)N2CCOCC2)N(C)C(=O)[C@H](C2CCCC2)N(C)C(=O)C2(CCC2)NC(=O)[C@@H]2CCCN2C(=O)[C@H](CCc2ccc(C(F)(F)F)c(Cl)c2)NC(=O)CN(C)C(=O)[C@@H]1Cc1ccc(C(F)(F)F)cc1` [PP0407] ([NMeL]I[Sar][Aze][NPrPhe(4-CF3)][Sar][hPhe(3-Cl-4-CF3)]P[Ac4c][NMeGly(cPent)][NMeD]-Morpholide; lactam N-11): the IC50 in test [1] stood at 7.6 nM. In addition, the “NRAS/KRAS (ratio of KD value for NRAS to KD value for KRAS)” value in test [2] is “C (A compound having a KD ratio of 0.1 or more and less than 3 is denoted as C)”. Moreover, in test [3], the “HRAS/KRAS (ratio of KD value for HRAS to KD value for KRAS)” value is “B (a compound having 3 or more and less than 10 is denoted as B)”. The Kd in test [4] is 0.11 nM.
Regarding `CCCN1C(=O)CN(C)C(=O)CN(CC)C(=O)[C@H]([C@@H](C)CC)NC(=O)[C@H](CC(C)C)N(C)C(=O)C[C@@H](C(=O)N(C)C)N(C)C(=O)[C@H](C2CCCC2)N(C)C(=O)C2(CCCC2)NC(=O)[C@@H]2CCCN2C(=O)[C@H](CCc2ccc(C(F)(F)F)c(Cl)c2)NC(=O)CN(C)C(=O)[C@@H]1Cc1ccc(C(F)(F)F)cc1` [PP0423] ([NMeL]I[NEtG][Sar][NPrPhe(4-CF3)][Sar][hPhe(3-Cl-4-CF3)]P[Ac5c][NMeGly(cPent)][NMeD]-NMe2; lactam N-11), in test [1], the half-inhibitory concentration (IC50) is 7.1 nM. The “NRAS/KRAS (ratio of KD value with respect to NRAS to KD value with respect to KRAS)” value in test [2] was “B (a compound having 3 or more and less than 10 is denoted as B)”. For the same molecule, in test [3], the “HRAS/KRAS (ratio of KD value with respect to HRAS to KD value with respect to KRAS)” value was “C (A compound having a KD ratio of 0.1 or more and less than 3 is denoted as C)”. Besides, in test [4], the Kd came out at 0.18 nM.
